Laboratory results from US20050159599A1, “Cyclic compound, process for producing the same, and pest control agent” (priority 2002, published 2005).

Key:
Type in all cases: in vivo
[1] = tested on: Spodoptera litura; assay: Insecticidal effect for Spodoptera litura by spraying treatment to host crop (Test Example 2); details: 100 ppm, sprayed on soybean, third-instar larvae of Spodoptera litura, fifth day after; for pest or weed control at 100 ppm: 120 h, read-out: rate of dead pests (%)
Experimental: Insecticidal Effect for Spodoptera litura by Spraying Treatment to Host Crop
A pesticidal solution, which was prepared by dissolving 5 mg of test compound (represented by the compound Nos. in the above Examples) in 0.5-ml of acetone containing Tween 20 (trade name) and then diluting it to the prescribed concentration (100 ppm) with Dain (trade name, sticker) water diluted 5000-fold, was sprayed on a soybean whose primary leaves had developed completely with spray gun in the amounts wherein the pesticidal solution dripped. After drying the pesticidal solution, two primary leaves were cut off. The leaves were put into an ice cream cup (180 ml), and ten third-instar larvae of Spodoptera litura were set free therein. The cup was left in a temperature-controlled breeding room (25° C.). On the fifth day after, the number of surviving Spodoptera litura was examined. The rate of dead pests was calculated by the following formula. rate of dead pests (%)=(number of dead pests/number of test pests)×100

[2] = tested on: Plutella xylostella; assay: Insecticidal effect for Plutella xylostella by immersion treatment of host crop (Test Example 1); details: cabbage leaf dipped, second-instar larvae of Plutella xylostella, fifth day after; for rate of dead pests (%): 100 ppm; for pest or weed control at 100 ppm: foliar, 120 h, read-out: rate of dead pests (%)
Experimental: Insecticidal Effect for Plutella xylostella by Immersion Treatment of Host Crop One true leaf of 7 to 8-leave stage cabbage was cut off and dipped in a pesticidal solution for a few seconds, which was prepared by dissolving 5 mg of test compound (represented by the compound Nos. in the above Examples) in 0.5 ml of acetone containing Tween 20 (trade name) and then diluting it to the prescribed concentration (100 ppm) with Dain (trade name, sticker) water diluted 5000-fold. After drying the pesticidal solution, the leaf was put into an ice cream cup (180 ml), and ten second-instar larvae of Plutella xylostella were set free therein. The cup was left in a temperature-controlled breeding room (24° C.). On the fifth day after, the number of surviving Plutella xylostella was examined. The rate of dead pests was calculated by the following formula. rate of dead pests (%)=(number of dead pests/number of test pests)×100

[3] = tested on: Spodoptera litura; assay: Insecticidal effect for Spodoptera litura by immersion treatment of host crop root (Test Example 4); details: 25 ppm, soybean root immersion 5 days, second-instar larvae of Spodoptera litura, fifth day after; for pest or weed control at 25 ppm: 120 h, read-out: rate of dead pests (%)
Experimental: Insecticidal Effect for Spodoptera litura by Immersion Treatment of Host Crop Root Roots of primary leaves developing stage soybean was washed with tap water to remove soil, and then immersed in a pesticidal solution which was prepared by dissolving 5 mg of test compound (represented by the compound Nos. in the above Examples) in 0.5 ml of acetone containing Tween 20 ([…]) with ion-exchange water, and which was filled in a light-shielded Erlenmeyer flask (100 ml). On the fifth day after immersion of root, two primary leaves were cut off, and the leaves were put into an ice cream cup (180 ml). Ten second-instar larvae of Spodoptera litura were set free therein, and the cup was left in a temperature-controlled breeding room (25° C.). On the fifth day after, the number of surviving Spodoptera litura was examined. The rate of dead pests was calculated by the following formula. rate of dead pests (%)=(number of dead pests/number of test pests)×100

SMILES	rate of dead pests (%) [1] [%]	rate of dead pests (%) [2] [%]	other results
C#CCN1CN(C(=O)c2c(F)cccc2F)C(=O)N(c2ccc(Oc3ccc(C(F)(F)F)cc3Cl)cc2F)C1 [III-23]	100	100	
C=CCN1CN(C(=O)c2c(F)cccc2F)C(=O)N(c2cc(Cl)c(F)c(Cl)c2F)C1 [III-56]	100	100	
O=C(c1c(F)cccc1F)N1CN(Cc2ccccc2)CN(c2cc(Cl)c(F)c(Cl)c2F)C1=O [III-60]	100	100	
O=C(c1c(F)cccc1F)N1COCN(c2c(F)cc(SC(F)(F)F)c(F)c2F)C1=O [I-116]	100	100	
O=C(c1c(F)cccc1Cl)N1COCN(c2ccc(SC(F)(F)F)cc2F)C1=O [I-221]	100	100	rate of dead pests (%) [3]: 100%
COC(=O)C(=O)N1CN(C(=O)c2c(F)cccc2F)C(=O)N(c2cc(Cl)c(OC(F)(F)C(F)C(F)(F)F)cc2Cl)C1 (stereo not drawn) [III-72]	100	100	
O=C(c1c(F)cccc1F)N1COCN(c2ccc([S+]([O-])C(F)(F)F)c(F)c2F)C1=O (stereo not drawn) [I-108]		100	
O=C(c1c(Cl)cccc1Cl)N1COCN(c2ccc(SC(F)(F)F)cc2F)C1=O [I-398]	100	100	
C#CCN1CN(C(=O)c2c(F)cccc2F)C(=O)N(c2cc(Cl)c(F)c(Cl)c2F)C1 [III-57]	100	100	
O=C(NOCc1ccccc1)C(=O)N1CN(C(=O)c2c(F)cccc2F)C(=O)N(c2ccc(Oc3ccc(C(F)(F)F)cc3Cl)cc2F)C1 [III-50]	100	100	
O=C(OCc1ccccc1)N1CN(C(=O)c2c(F)cccc2F)C(=O)N(c2cc(Cl)c(OC(F)(F)C(F)C(F)(F)F)cc2Cl)C1 (stereo not drawn) [III-70]	100	100	
O=C(c1c(F)cccc1F)N1CN(c2ccccc2)CN(c2cc(Cl)c(F)c(Cl)c2F)C1=O [III-54]	100	100	
O=C(c1c(F)cccc1F)N1CSCN(c2ccc(SC(F)(F)C(F)Cl)cc2F)C1=O (stereo not drawn) [II-19]		100	
O=C(c1c(F)cccc1F)N1CN=CN(c2ccc(Oc3ccc(C(F)(F)F)cc3Cl)cc2F)C1=O [V-3]	100	100	
Cc1c(N2COCN(C(=O)c3c(F)cccc3F)C2=O)ccc(SC(F)(F)F)c1Cl [I-122]	100		rate of dead pests (%) [3]: 95%
O=C(c1c(F)cccc1F)N1C[S+]([O-])CN(c2cc(Cl)c(F)c(Cl)c2F)C1=O (stereo not drawn) [II-11]	100		rate of dead pests (%) [3]: 100%
CS(=O)(=O)N1CN(C(=O)c2c(F)cccc2F)C(=O)N(c2ccc(Oc3ccc(C(F)(F)F)cc3Cl)cc2F)C1 [III-26]	100	100	
O=C(c1c(F)cccc1F)N1COCN(c2ccc(SC(F)(F)F)cc2Cl)C1=O [I-74]	100		rate of dead pests (%) [3]: 100%
O=C(c1c(F)cccc1Cl)N1COCN(c2cc(F)c([S+]([O-])C(F)(F)F)cc2F)C1=O (stereo not drawn) [I-288]	100		rate of dead pests (%) [3]: 100%

SMILES	rate of dead pests (%) [1] [%]	rate of dead pests (%) [2] [%]	other results
COC(=O)N1CN(C(=O)c2c(F)cccc2F)C(=O)N(c2ccc(Oc3ccc(C(F)(F)F)cc3Cl)cc2F)C1 [III-28]	100	100	
O=C(c1c(F)cccc1F)N1CN(c2ccccc2)CN(c2ccc(Cl)cc2)C1=O [III-2, 1-(4-chlorophenyl)-3-(2,6-difluorobenzoyl)-5-phenyltetrahydro-1,3,5-triazin-2(1H)-one]			pest or weed control at 100 ppm [1]: 100%; pest or weed control at 25 ppm [3]: 90%
COC(=O)N1CN(C(=O)c2c(F)cccc2F)C(=O)N(c2cc(Cl)c(F)c(Cl)c2F)C1 [III-61]		100	rate of dead pests (%) [3]: 100%
CS(=O)(=O)N1CN(C(=O)c2c(F)cccc2F)C(=O)N(c2ccc(Cl)cc2)C1 [III-12, 1-(4-chlorophenyl)-3-(2,6-difluorobenzoyl)-5-methanesulfonyltetrahydro-1,3,5-triazin-2(1H)-one]			pest or weed control at 100 ppm [1]: 100%; pest or weed control at 25 ppm [3]: 100%
CN1CN(C(=O)c2c(F)cccc2F)C(=O)N(c2ccc(S(=O)(=O)C(F)F)cc2F)C1 [III-156, 1-(2,6-difluorobenzoyl)-3-[4-(difluoromethylsulfonyl)-2-fluorophenyl]-5-methyltetrahydro-1,3,5-triazin-2 (1H)-one]			pest or weed control at 100 ppm [1]: 100%; pest or weed control at 100 ppm [2]: 100%
Cc1ccc(S(=O)(=O)N2CN(C(=O)c3c(F)cccc3F)C(=O)N(c3cc(Cl)c(F)c(Cl)c3F)C2)cc1 [III-63]	100	100	
O=C(OCc1ccccc1)N1CN(C(=O)c2c(F)cccc2F)C(=O)N(c2cc(Cl)c(F)c(Cl)c2F)C1 [III-55, 5-benzyloxycarbonyl-1-(3,5-dichloro-2,4-difluorophenyl)-3-(2,6-difluorobenzoyl)tetrahydro-1,3,5-triazin-2(1H)-one]			pest or weed control at 100 ppm [1]: 100%; pest or weed control at 100 ppm [2]: 100%
COC(=O)N1CN(C(=O)c2c(F)cccc2F)C(=O)N(c2ccc(Cl)cc2)C1 [III-13]	100		rate of dead pests (%) [3]: 100%
CN(C)C(=O)C(=O)N1CN(C(=O)c2c(F)cccc2F)C(=O)N(c2ccc(Oc3ccc(C(F)(F)F)cc3Cl)cc2F)C1 [III-43, 2-[3-[4-(2-chloro-4-trifluoromethylphenoxy)-2-fluorophenyl]-5-(2,6-difluorobenzoyl)hexahydro-4-oxo-1,3,5-triazin-1-yl]-N,N-dimethyl-2-oxoacetamide]			pest or weed control at 100 ppm [1]: 100%; pest or weed control at 100 ppm [2]: 100%
O=C(OCc1ccccc1)N1CN(C(=O)c2c(F)cccc2F)C(=O)N(c2ccc(SC(F)(F)C(F)Cl)cc2F)C1 (stereo not drawn) [III-77]	100	100	
O=C(c1c(F)cccc1F)N1CSCN(c2ccc([S+]([O-])C(F)(F)C(F)Cl)cc2F)C1=O (stereo not drawn) [II-22]		100	
O=C(c1c(F)cccc1Cl)N1COCN(c2ccc(S(=O)(=O)C(F)(F)C(F)(F)F)cc2F)C1=O [I-307]	100		rate of dead pests (%) [3]: 90%
COC(=O)SN1CN(C(=O)c2c(F)cccc2F)C(=O)N(c2cc(Cl)c(F)c(Cl)c2F)C1 [III-62]	100	100	
O=C(c1c(F)cccc1Cl)N1COCN(c2c(F)cc(SC(F)(F)F)cc2Cl)C1=O [I-278]	100		rate of dead pests (%) [3]: 90%
C[S+]([O-])c1ccc(N2COCN(C(=O)c3c(F)cccc3Cl)C2=O)c(F)c1 (stereo not drawn) [I-206]		100	rate of dead pests (%) [3]: 100%
O=C(c1c(F)cccc1F)N1COCN(c2ccc(SCC=C(Cl)Cl)cc2F)C1=O [I-37]	100		rate of dead pests (%) [3]: 100%
O=C(c1c(F)cccc1F)N1CNCN(c2cc(Cl)c(OC(F)(F)C(F)C(F)(F)F)cc2Cl)C1=O (stereo not drawn) [III-71]	100	100	
O=C(c1c(F)cccc1F)N1COCN(c2ccc(SC(F)(F)C(F)F)cc2F)C1=O [I-22]	100	100	
